Here are results for 2 compounds from PMC7366829 (Acta biomaterialia, 2020).

Each structure is given as a SMILES string.

Experiment [1] has as its target MelBEc (Escherichia coli, UniProt P02921). The experiment is described as follows: Trp to D2G FRET. Format: binding. As to conditions: 10 μM D2G; 23 °C; GNG-3,14 extract; active site.
In experiment [2] the target is MelBSt (Salmonella enterica, UniProt P30878). Kind of experiment: Trp to D2G FRET. As to conditions: 10 μM D2G; 23 °C; DDM or GNG-3,14 extract; active site. Format: binding.
MelBSt, sequence (P30878 whole entry): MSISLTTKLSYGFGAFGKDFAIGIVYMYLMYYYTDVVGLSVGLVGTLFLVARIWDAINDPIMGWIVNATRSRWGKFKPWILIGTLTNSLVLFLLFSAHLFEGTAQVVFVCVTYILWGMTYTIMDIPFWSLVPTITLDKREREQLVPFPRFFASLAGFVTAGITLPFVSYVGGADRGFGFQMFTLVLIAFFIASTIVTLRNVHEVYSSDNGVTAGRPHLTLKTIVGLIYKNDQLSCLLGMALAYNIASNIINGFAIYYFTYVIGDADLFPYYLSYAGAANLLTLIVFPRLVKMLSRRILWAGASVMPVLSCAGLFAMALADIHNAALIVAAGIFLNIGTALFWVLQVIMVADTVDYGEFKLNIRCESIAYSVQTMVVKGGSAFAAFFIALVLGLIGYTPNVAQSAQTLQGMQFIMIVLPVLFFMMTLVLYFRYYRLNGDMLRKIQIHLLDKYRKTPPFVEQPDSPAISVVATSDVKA
Experiment [3] deals with β2AR (Homo sapiens, UniProt P07550). The experiment is described as follows: radioligand binding, G-50 column. Conditions: 10 nM [3H]-DHA; pH 7.5; 100 mM NaCl; room temperature; antagonist; labelled compound.
β2AR, sequence (P07550 whole entry): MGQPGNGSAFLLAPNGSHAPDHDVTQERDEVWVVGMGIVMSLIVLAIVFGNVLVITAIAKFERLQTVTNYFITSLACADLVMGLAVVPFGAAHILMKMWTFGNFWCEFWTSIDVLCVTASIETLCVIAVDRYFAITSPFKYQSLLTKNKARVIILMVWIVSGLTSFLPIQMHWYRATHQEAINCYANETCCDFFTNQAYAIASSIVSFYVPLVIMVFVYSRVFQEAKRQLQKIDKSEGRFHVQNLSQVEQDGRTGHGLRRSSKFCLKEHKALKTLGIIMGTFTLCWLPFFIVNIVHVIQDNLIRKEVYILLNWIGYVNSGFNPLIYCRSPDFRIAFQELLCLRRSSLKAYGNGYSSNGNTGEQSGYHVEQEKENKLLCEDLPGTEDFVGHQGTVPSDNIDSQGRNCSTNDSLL

MelBEc, sequence (P02921 2-473): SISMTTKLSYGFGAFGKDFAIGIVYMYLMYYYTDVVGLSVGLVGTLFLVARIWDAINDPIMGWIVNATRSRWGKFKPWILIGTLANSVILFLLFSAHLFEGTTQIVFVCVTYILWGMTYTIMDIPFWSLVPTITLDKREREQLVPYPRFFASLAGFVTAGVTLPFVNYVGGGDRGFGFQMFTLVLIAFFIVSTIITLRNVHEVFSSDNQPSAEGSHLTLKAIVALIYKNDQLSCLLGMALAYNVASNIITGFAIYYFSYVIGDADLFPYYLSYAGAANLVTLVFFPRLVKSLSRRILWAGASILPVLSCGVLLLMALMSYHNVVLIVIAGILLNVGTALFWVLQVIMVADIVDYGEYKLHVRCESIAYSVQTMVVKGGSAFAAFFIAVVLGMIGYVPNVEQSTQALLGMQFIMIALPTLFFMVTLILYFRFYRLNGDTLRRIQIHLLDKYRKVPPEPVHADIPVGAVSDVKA

With `CN(C)c1cccc2c(S(=O)(=O)NCCS[C@@H]3O[C@H](CO)[C@H](O)[C@H](O)[C@H]3O)cccc12` [D2G, 2’-(N-Dansyl)aminoalkyl-1-thio-β-D-galactopyranoside], the “Trp to D2G FRET” value is “GNG-3,14-extracted MelBEc was functional under the same conditions” in experiment [1]; “DDM or GNG-3,14-extracted MelBSt responded to addition of D^2G and melibiose” in experiment [2].

With `CCCc1ccccc1OCC(O)CNC(C)C` (stereo not drawn) [[3H]-dihydroalprenolol], the “radioligand binding, G-50 column” value in experiment [3] is “ligand binding assay using a radio-active antagonist ([^3H]-DHA)”.
